The results in this text go back to patent publication US10537650B2, “Molecular probes for multimodality imaging and tracking of stem cells” (University of Massachusetts, priority 2012, dated 2020).

Assay type in all cases: in vivo, mouse
The nature of data set [1]: SPECT/CT, whole body count and optical imaging of ^111In-MTTI-157 labeled TC1 mES cells in NU/NU mice. The following applies: for distribution of radioactivity (SPECT/CT): NU/NU mice. As to the method:
All animal experiments were approved by the Institutional Animal Care and Use Committee of the university. Male NU/NU mice from Charles River Laboratories International, Inc. (Wilmington, Mass.), about 8 week-old, were used here, and fed a white chow (AIN-93G Purified Diet, Harlan, Madison, Wis.) and water, and housed under standard conditions. TC1 wild type mES cells were labeled with ^111In-MTTI-157 at the dye concentration of 20 μM with about 50 μCi/ml per labeling mix according to the method described before. Then about 4-5 μCi of ^111In-MTTI-157 labeled cells in 0.1 ml PBS (5×10^6 per mouse) was injected into NU/NU mice by tail vein or delivered subcutaneously on the left shoulder. The mice were followed by SPECT/CT imaging (NanoSPECT/CT, Bioscan, Inc., Washington, D.C.) with scans at 1 h and 19 h for injection subcutaneously, and at 30 min and 18 h for injection by tail vein.
The whole body radioactivity was measured through day 9 after injection by placing the mouse in a dose calibrator (Capintec).
(§1) The SPECT image parameters were 1.0 mm/pixel, 256×256 frame size and 60 sec per projection with 24 projections. Acquisition time was approximately 30 min. During imaging, the animal was anesthetized with 1-2% isoflurane in 1.5 liters/min oxygen. A CT scan was acquired prior to the SPECT scan and was performed at standard resolution, using a 45 kVp voltage and 500 milliseconds exposure time. The CT and SPECT reconstruction was performed using InVivoScope 1.43 software (Bioscan, Washington, D.C.).
Optical images (Pearl Imager, LiCor Biosciences, Lincoln, Nebr.) were acquired on day 0 and at intervals through day 28. After imaging, the lungs, liver, spleen and teratoma were removed, imaged and then imbedded in OCT in preparation for frozen section fluorescence microscopy. Slides were counter stained with the general membrane stain D275 (Invitrogen, Em: 484 nm, Ex: 501 nm). Slides were viewed in an Olympus IX 70 Inverted Light Microscope (Olympus America, Inc., NY) using filters for FITC (for D275) and Cy5 (for MTTI-157). […]

The nature of data set [2]: SPECT/CT, whole body activity and optical imaging of ^111In-MTTI-157 labeled LS174T cells in SKH-1 mice. As to the method: ^111In-MTTI-157 labeled LS174T cells were administered to mice to follow their fate and that of the labels they carried. All animal experiments were approved by the Institutional Animal Care and Use Committee of the university. Male SKH-1 mice about 8 week-old (Charles River Laboratories, Inc., Wilmington, Mass.) were housed under standard conditions and fed white chow (AIN-93G Purified Diet, Harlan, Madison, Wis.). LS174T cells were prepared labeled with ^111In-MTTI-157 as above, and about 5×10^6 cells with 10-12 μCi was injected by tail vein per mouse.
as §1, with “The mice were followed by SPECT/CT imaging (NanoSPECT/CT, Bioscan, Inc., Washington, D.C.) with scans at 30 min, 1 h, 24 h, 72 h, 120 h and 168 h following injection. The SPECT” for “The SPECT”, “in 1.5 L/min oxygen. A” for “in 1.5 liters/min oxygen. A”
Optical images (Pearl Imager, LiCor Biosciences, Lincoln, Nebr.) were acquired on day 0 and at intervals through day 28. To facilitate detection of signal at depth, such as in the lungs, some animals were killed, the chest and abdomen opened to expose internal organs, and then imaged. Untreated mice served as control. After imaging, the lungs, liver and spleen were removed, imaged and then imbedded in OCT in preparation for frozen section fluorescence microscopy. Slides were counter stained with the general membrane stain D275 (Invitrogen). Slides were viewed in an Olympus IX 70 Inverted Light Microscope (Olympus America, Inc., NY) using filters for FITC (for D275) and Cy5 (for MTTI-157).

A short description of data set [3]: SPECT/CT, whole body count and optical imaging of ^111In-MTTI-157 labeled BL/6 mES cells in NU/NU mice. The protocol:
BL/6 wild type mouse embryonic stem cells (mES) were labeled with ^111In-MTTI-157 at the concentration of 12 μM and about 250 μCi/ml according to the method described before. The labeled cells (5 in 0.1 ml PBS (5×10^6 per mouse) were injected into NU/NU mice by tail vein or subcutaneously on the left shoulder. SPECT/CT imaging was done at 30 min, 21 h and day 4 after injection subcutaneously, and at 1 h, 22 h and day 4 when injected by tail vein. Optical imaging was performed through day 11 for the subcutaneous delivery of cells. The whole body radioactivity was measured through day 7 by placing the animal in a dose calibrator.
The lungs, liver, and spleen were removed from the mouse injected by tail vein when sacrificed on day 19, and the teratoma was removed from mouse injected subcutaneously on the left shoulder when sacrificed on day 15. Excised organs and teratoma were imaged on the Li-Cor Biosciences Pearl Imager, and then set in OCT for frozen sections. The frozen sections were stained with the general membrane fluorescent stain D275 (Invitrogen, Em: 484 nm, Ex: 501 nm) and detected on an Olympus IX 70 Inverted Light Microscope (Olympus America, Inc., NY) using a FITC filter for D275 and a Cy5 filter for MTTI-157. D275 is a cell membrane stain and was used here to stain the field of view. The frozen sections were also stained with hematoxylin-eosin (H&E) for standard microscopy.

As to `CCCCCCCCCCCCCCCCCCCCCCN1C(=CC=CC=CC2=[N+](CCCCCCCCCCCCCCCCCCCCCC)c3ccc(CNC(=O)CN4CCN(CC(=O)[O-])CCN(CC(=O)[O-])CCN(CC(=O)[O-])CC4)cc3C2(C)C)C(C)(C)c2ccccc21.[111In+3].[I-]` [^111In-MTTI-157], the “distribution of radioactivity (SPECT/CT)” value in data set [1] (labeled TC1 mES cells injected by tail vein) was “accumulated in the lungs at 1 h after injection and then distributed to liver and spleen by 19 h”; in data set [1] (labeled TC1 mES cells injected subcutaneously on the left shoulder), “retained in the shoulder and did not distribution to other tissue through 18 h”; in data set [2] (labeled LS174T cells by tail vein, SKH-1 mice, earliest scan 30 min and 1 h, then within a day), “restricted to the lungs and then seen to redistribute within a day to the liver and spleen”; in data set [3] (labeled BL/6 mES cells by tail vein, NU/NU mice), “accumulated in the lungs by 1 h following injection which then distributed to the liver and spleen by 22 h”; in data set [3] (labeled BL/6 mES cells subcutaneously on left shoulder, through day 4) it was “retained in the shoulder without distribution to other tissue”. Further, the “whole body radioactivity corrected for decay” value in data set [1] (tail vein and subcutaneous injection of labeled TC1 mES cells, dose calibrator) is “retained in the body through day 9”. Moreover, the “whole body ^111In retention (decay corrected)” value in data set [2] (SKH-1 mice, labeled LS174T cells by tail vein) was “retention out thru Day 14”. The “loss of whole body activity (half-life corrected)” value in data set [2] (from day 0 to day 10, dose calibrator, SKH-1 mice) is reported as “about 23%”. For the same compound, in data set [2] (monitoring of cells out through 28 days in vivo), the “label stability in vivo” value was “no evidence of label instability”. Moreover, the whole body radioactivity entry in data set [3] (labeled BL/6 mES cells, measured through day 7 in dose calibrator) is “unchanged from 2 h to 21 h after injection, but then decreases slightly at 91 h and remain at this level through 165 h”.
